Measured values published in ChEMBL document CHEMBL1201862, “PubChem BioAssay data set” (2004).
Activity calls are given as the source filed them.

Experiments:
[1] = inhibitors of intracellular T. cruzi replication, confirmation, NIH3T3 host cells, beta-gal luminescence (AID 2044); assay type: functional, cell-based;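 note: intracellular parasites grown in NIH/3T3 mouse fibroblasts as host cells; luminescent beta-galactosidase reporter signal from transgenic T. cruzi replicating inside host cells; inhibitors lower the luminescence signal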
[2] = target: T1, CAAX prenyl protease 2 (Saccharomyces cerevisiae S288c, UniProt Q03530); assay type: biochemical
T1 sequence (Q03530 whole entry): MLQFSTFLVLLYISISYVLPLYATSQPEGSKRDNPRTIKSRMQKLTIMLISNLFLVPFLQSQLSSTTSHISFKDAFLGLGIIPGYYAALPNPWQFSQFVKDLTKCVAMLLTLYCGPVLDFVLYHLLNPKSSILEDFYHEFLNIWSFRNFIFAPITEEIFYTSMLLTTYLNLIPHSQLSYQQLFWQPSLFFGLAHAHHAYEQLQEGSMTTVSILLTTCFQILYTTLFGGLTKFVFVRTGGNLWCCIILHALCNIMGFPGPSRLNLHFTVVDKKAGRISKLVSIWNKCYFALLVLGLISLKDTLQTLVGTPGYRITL

[3] = target: Mu-type opioid receptor (Homo sapiens, UniProt P35372); assay: Counterscreen for agonists of heterodimerization of the mu 1 (OPRM1) and delta 1 (OPRD1) opioid receptors: Luminescence-based cell-based high throughput dose response assay to identify agonists of OPRM1 homodimerization.; assay type: functional;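 note: U2OS cells expressing OPRM1 and beta-arrestin as split beta-galactosidase partners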
[4] = target: Mothers against decapentaplegic homolog 3 (Homo sapiens, UniProt P84022); assay: SMAD3 transcription factor inhibitors, dose response (AID 715); assay type: functional
[5] = target: T2, Cysteine protease ATG4B (Homo sapiens, UniProt Q9Y4P1); assay type: functional;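 note: Fluorescence-based dose-response confirmation assay measuring inhibition of ATG4B activity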
T2 sequence (Q9Y4P1 whole entry): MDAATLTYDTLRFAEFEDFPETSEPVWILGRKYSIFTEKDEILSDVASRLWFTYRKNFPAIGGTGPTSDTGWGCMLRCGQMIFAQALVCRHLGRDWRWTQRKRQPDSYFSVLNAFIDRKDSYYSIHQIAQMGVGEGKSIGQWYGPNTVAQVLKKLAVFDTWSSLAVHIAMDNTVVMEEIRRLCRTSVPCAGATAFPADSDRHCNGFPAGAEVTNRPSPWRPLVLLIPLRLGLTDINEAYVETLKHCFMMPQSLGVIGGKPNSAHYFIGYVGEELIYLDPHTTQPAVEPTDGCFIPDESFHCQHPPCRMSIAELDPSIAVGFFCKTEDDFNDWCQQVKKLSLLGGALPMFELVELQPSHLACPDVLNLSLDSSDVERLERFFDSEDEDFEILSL

[6] = target: Large T antigen (Simian virus 40, UniProt P03070); assay type: functional, Betapolyomavirus macacae;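 note: Confirmatory-stage PubChem screen for compounds that inhibit SV40 T antigen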
[7] = target: Beta-lactamase (Salmonella choleraesuis (strain SC-B67), UniProt Q5J463)
[8] = target: T3, Mannose-6-phosphate isomerase (Homo sapiens, UniProt P34949); assay: human PMI inhibitors, high substrate, primary screen, biochemical, fluorescence intensity, high mannose 6-phosphate (AID 1220)
T3 sequence (P34949 whole entry): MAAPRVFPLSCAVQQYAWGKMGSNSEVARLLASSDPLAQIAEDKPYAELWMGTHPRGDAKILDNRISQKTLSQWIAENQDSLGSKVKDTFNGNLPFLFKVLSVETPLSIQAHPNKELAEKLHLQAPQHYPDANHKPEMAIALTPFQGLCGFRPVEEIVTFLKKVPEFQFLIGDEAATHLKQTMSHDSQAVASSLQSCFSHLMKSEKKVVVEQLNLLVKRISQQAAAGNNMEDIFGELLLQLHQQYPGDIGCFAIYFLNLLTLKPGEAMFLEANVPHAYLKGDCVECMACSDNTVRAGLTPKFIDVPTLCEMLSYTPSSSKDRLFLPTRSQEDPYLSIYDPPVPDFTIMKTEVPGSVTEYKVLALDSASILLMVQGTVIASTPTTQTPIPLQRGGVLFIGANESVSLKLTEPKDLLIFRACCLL

[9] = target: T4, Histone-lysine N-methyltransferase NSD2 (Homo sapiens, UniProt O96028); assay type: biochemical
T4 sequence (O96028 whole entry): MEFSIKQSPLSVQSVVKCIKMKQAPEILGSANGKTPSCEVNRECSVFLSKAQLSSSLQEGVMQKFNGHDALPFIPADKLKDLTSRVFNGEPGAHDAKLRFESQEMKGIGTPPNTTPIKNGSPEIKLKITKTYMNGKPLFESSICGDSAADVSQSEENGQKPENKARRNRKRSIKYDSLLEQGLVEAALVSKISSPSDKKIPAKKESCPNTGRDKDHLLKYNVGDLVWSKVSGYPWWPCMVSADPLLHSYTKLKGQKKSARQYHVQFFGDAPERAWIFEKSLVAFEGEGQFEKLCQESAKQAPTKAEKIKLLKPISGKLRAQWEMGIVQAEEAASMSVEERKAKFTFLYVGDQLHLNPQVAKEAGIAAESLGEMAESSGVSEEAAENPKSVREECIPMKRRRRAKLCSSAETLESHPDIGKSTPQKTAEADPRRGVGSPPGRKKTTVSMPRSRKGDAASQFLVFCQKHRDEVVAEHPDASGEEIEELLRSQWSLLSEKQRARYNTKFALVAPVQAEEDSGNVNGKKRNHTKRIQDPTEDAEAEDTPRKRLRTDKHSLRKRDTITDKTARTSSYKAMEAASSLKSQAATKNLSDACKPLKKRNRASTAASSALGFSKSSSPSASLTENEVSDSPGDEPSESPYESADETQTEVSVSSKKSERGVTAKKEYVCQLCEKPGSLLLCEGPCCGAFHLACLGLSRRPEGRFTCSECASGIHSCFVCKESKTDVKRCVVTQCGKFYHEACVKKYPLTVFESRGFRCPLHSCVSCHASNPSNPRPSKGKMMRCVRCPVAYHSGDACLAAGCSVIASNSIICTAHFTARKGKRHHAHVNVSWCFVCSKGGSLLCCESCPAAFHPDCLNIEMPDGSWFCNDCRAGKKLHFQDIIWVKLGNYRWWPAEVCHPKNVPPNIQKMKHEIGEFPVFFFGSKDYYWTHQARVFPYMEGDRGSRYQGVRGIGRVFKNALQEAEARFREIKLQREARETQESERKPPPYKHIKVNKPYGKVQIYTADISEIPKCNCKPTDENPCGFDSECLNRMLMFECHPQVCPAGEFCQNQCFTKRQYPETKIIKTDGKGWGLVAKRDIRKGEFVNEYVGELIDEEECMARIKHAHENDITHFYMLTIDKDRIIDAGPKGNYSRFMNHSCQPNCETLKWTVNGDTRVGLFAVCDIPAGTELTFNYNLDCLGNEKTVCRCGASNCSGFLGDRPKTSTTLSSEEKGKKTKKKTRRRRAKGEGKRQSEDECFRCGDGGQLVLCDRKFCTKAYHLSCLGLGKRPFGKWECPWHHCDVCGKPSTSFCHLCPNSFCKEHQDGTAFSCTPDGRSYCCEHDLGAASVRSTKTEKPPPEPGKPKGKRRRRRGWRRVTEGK

Mu-type opioid receptor, sequence (P35372 whole entry): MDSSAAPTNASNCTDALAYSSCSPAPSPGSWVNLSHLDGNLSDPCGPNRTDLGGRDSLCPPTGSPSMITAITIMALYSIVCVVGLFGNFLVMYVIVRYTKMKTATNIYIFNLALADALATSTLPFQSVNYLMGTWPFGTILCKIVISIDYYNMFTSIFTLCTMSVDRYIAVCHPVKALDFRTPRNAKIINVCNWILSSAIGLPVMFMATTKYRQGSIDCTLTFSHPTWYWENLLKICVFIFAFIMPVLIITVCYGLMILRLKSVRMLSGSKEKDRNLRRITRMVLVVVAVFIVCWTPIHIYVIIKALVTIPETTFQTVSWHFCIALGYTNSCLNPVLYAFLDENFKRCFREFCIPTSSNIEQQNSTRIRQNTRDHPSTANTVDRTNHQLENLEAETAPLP
Large T antigen, sequence (P03070 whole entry): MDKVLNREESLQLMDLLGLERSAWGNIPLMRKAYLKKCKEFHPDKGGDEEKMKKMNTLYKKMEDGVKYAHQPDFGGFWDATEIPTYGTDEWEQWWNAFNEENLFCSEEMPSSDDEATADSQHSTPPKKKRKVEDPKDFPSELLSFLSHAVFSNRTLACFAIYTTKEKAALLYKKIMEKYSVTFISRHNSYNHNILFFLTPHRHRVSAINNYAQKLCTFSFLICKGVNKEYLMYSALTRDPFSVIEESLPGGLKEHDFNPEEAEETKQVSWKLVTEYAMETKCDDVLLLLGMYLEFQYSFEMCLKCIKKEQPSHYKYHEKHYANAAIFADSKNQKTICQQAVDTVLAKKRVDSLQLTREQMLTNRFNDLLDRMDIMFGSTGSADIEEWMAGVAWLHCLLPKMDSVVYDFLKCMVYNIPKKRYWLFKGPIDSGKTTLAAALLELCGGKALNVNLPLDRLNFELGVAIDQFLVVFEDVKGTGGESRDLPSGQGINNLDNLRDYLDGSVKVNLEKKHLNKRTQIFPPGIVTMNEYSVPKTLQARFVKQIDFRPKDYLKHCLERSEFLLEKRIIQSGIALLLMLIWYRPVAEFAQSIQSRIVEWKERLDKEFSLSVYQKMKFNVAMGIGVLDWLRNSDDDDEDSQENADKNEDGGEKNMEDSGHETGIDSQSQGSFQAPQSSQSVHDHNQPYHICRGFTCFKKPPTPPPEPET
Mothers against decapentaplegic homolog 3, sequence (P84022 whole entry): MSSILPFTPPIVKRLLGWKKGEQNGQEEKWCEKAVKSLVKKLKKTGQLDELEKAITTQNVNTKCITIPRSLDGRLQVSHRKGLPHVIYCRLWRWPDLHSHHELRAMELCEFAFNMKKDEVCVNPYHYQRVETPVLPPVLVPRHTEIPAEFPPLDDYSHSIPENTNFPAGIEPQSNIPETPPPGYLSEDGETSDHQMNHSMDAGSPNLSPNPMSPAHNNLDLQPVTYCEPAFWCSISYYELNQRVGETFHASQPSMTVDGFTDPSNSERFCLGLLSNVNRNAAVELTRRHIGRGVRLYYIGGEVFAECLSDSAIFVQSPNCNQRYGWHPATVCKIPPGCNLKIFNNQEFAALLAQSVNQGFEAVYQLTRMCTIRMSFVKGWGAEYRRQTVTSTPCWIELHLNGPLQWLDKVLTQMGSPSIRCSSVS
Beta-lactamase, sequence (Q5J463 whole entry): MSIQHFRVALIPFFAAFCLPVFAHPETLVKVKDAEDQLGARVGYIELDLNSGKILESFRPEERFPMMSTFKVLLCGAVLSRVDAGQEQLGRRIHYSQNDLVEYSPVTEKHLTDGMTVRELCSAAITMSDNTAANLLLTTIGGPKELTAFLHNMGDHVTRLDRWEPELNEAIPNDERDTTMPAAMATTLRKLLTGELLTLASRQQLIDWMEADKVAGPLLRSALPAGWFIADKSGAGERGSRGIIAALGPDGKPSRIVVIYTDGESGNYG

SMILES: CCCCCCCCCCOC(=O)C[n+]1c(COc2ccccc2C)n(C)c2ccccc21
- EC50 [1]: 680 nM (active)
- AC50 [2]: 8.72 µM (active)
- EC50 [3]: > 92.5 µM (inactive)

SMILES: Oc1nc(Nc2ccccc2)cc2ccccc12
- IC50 [4]: 19.6 µM (active)
- IC50 [5]: 9.22 µM (active)

SMILES: COc1cc(OC)c(-c2c3cc(O)c(=O)cc-3oc3cc(O)c(O)cc23)cc1OC
- IC50 [6]: 1.73 µM (active)
- IC50 [7]: 2.13 µM (active)
- IC50 [8]: > 50 µM (not active)
- AC50 [9]: 282 nM (active)
